# Tests used:
# Male C57BL6/j mice = experiment: Amphetamine-induced locomotor activity in mice (amphetamine model of schizophrenia); type: in vivo; conditions: 30 mg/kg ip, 30 minutes before amphetamine sulphate 3.0 mg/kg s.c., distance traveled measured for 60 minutes, p<0.01 vs vehicle-amphetamine
# Text: Amphetamine-induced increases in locomotor ambulation are well known and are widely used as a model of the positive symptoms of schizophrenia. This model is based on evidence that amphetamine increases motor behaviors and can induce a psychotic state in humans (Yui et al. (2000) Ann NY Acad Sci 914:1-12). Further, it is well known that amphetamine-induced increases in locomotor activity are blocked by antipsychotics drugs that are effective in the treatment of schizophrenia (Ant (1995) Eur J Pharmacol 283:55-62). […]
# Assessment of locomotor (ambulatory) activity: The effects of compounds on amphetamine-induced locomotor activation in mice were tested. […] Locomotor activity (ambulations) was monitored by a videotracking system (VideoTrack, Viewpoint, Champagne au Mont d'Or, France) that recorded the ambulatory movements of mice. […] Mice were placed into the locomotor boxes immediately after the amphetamine injection and their locomotor activity, defined as the distance traveled in centimeters (cm), was measured for 60 minutes. […]
# Statistical analyses: Statistical analyses were performed using GraphPad PRISM statistical software (GraphPad, San Diego, Calif., USA). Data were analyzed using an unpaired t-test. […]
Compound,melting point [°C],increase in locomotor activity induced by amphetamine (Male C57BL6/j mice; listed as #1),increase in locomotor activity induced by amphetamine (Male C57BL6/j mice; listed as example 1)
"O=C(c1ccc(F)cc1)N1CCC[C@H](n2nnc(-c3ccc(F)cc3)n2)C1 [Example 1, (4-Fluoro-phenyl)-{(S)-3-[5-(4-fluoro-phenyl)-tetrazol-2-yl]-piperidin-1-yl}-methanone]",109 to 110,significantly attenuate,significantly attenuated
"O=C(c1ccc(F)cc1)N1CCCC(n2nnc(-c3ccc(F)cc3)n2)C1 (stereo not shown) [Example 2, (4-Fluoro-phenyl)-{3-[5-(4-fluoro-phenyl)-tetrazol-2-yl]-piperidin-1-yl}-methanone]",137 to 139,,
"O=C(c1ccc(F)nc1)N1CCC[C@H](n2nnc(-c3ccc(F)cc3)n2)C1 [Example 21, {(S)-3-[5-(4-Fluoro-phenyl)-tetrazol-2-yl]-piperidin-1-yl}-(6-fluoro-pyridin-3-yl)-methanone]",109 to 110,,

# Second part, led by results:
melting point [°C],Compound,increase in locomotor activity induced by amphetamine (Male C57BL6/j mice; listed as #1),increase in locomotor activity induced by amphetamine (Male C57BL6/j mice; listed as example 1)
123 to 128,"O=C(c1ccc(F)c(F)c1)N1CCC[C@H](n2nnc(-c3ccc(F)cc3)n2)C1 [Example 24, (3,4-Difluoro-phenyl)-{(S)-3-[5-(4-fluoro-phenyl)-tetrazol-2-yl]-piperidin-1-yl}-methanone]",,
65 to 68,"O=C(c1ccc(F)cc1F)N1CCC[C@H](n2nnc(-c3ccc(F)cc3)n2)C1 [Example 25, (2,4-Difluoro-phenyl)-{(S)-3-[5-(4-fluoro-phenyl)-tetrazol-2-yl]-piperidin-1-yl}-methanone]",,

# From patent publication US20070299110A1, “Novel Tetrazole Derivatives as Positive Allosteric Modulators of Metabotropic Glutamate” (priority 2004, published 2007)
